Here are results for 17 molecules from ChEMBL document CHEMBL1133873, “Highly potent growth hormone secretagogues: hybrids of NN703 and ipamorelin” (Bioorg Med Chem Lett, 2001).

Where a SMILES comes first, the peptide text is derived from it. [ ]: non-standard residue; d: D form. d2Nal = N[C@H](Cc1ccc2ccccc2c1)C(=O)O; Aib = CC(C)(N)C(=O)O

For test [1], the system named is Sus scrofa. As to the kind of experiment: Release of growth hormone at single iv dose of 50 nmol/kg in pigs. It counts as functional.
The species named for test [2] is Rattus norvegicus. Kind of test: Efficacy was determined as percent of GHRP-6 in rat pituitary cell assay tested in vitro. It counts as functional. The note with it: Pituitary gland cell.
For test [3], the species on record is Rattus norvegicus. As to the kind of experiment: Concentration required for GH release from isolated pituitary cells of rat tested in vitro. It counts as functional, cell-based. The following applies: Pituitary gland cell.
For test [4], the system named is Sus scrofa. As to the kind of experiment: Effective dose required for release of GH from pigs in vivo. It counts as functional.

For `CCNC(=O)NCCCCCNC(=O)[C@H](Cc1ccccc1)N(C)C(=O)[C@H](Cc1ccc2ccccc2c1)N(C)C(=O)/C=C/CC(C)(C)N`, the GHmax in the test on Sus scrofa [1] is 8 ng/mL. In the test filed under Rattus norvegicus [2], this molecule returned an Emax of 95%. The molecule further gave an EC50 in the test filed under Rattus norvegicus [3] of 14 nM.
On the same counts, the results for `CN(C)C(=O)CN(C)C(=O)[C@H](Cc1ccccc1)N(C)C(=O)[C@H](Cc1ccc2ccccc2c1)N(C)C(=O)/C=C/CC(C)(C)N` are 48 ng/mL, 105% and 10 nM.
`CC(=O)NCCCCCNC(=O)[C@H](Cc1ccccc1)N(C)C(=O)[C@H](Cc1ccc2ccccc2c1)N(C)C(=O)/C=C/CC(C)(C)N`: the GHmax in the test on Sus scrofa [1] was 26 ng/mL. This molecule also yielded an Emax in the test listed under Rattus norvegicus [2] of 110%. The molecule also had an EC50 in the test filed under Rattus norvegicus [3] of 10 nM.
In the test with Sus scrofa [1], `CC(C)(N)C(=O)N[C@@H](Cc1c[nH]cn1)C(=O)N[C@H](Cc1ccc2ccccc2c1)C(=O)N[C@H](Cc1ccccc1)C(=O)N[C@@H](CCCCN)C(N)=O` [IPAMORELIN] (H-[Aib]H[d2Nal][dF]K-NH2) came in with a GHmax of 54 ng/mL. The same molecule came in with an ED50 in the test with Sus scrofa [4] of 0.0023 µmol/kg. Also, in the test listed under Rattus norvegicus [2], the Emax came to 85%.
As to `CN(C(=O)/C=C/CC(C)(C)N)[C@@H](Cc1ccc(-c2ccccc2)cc1)C(=O)N(C)[C@@H](Cc1ccccc1)C(=O)NCCCCN`, the GHmax with Sus scrofa [1] came to 91 ng/mL. The molecule further gave an Emax in the test listed under Rattus norvegicus [2] of 110%. The molecule also registered an EC50 in the test listed under Rattus norvegicus [3] of 1 nM.
As for `CC(C)(N)C(=O)N[C@H](COCc1ccccc1)C(=O)N1CCC2(CC1)CN(S(C)(=O)=O)c1ccccc12` [IBUTAMOREN], in the test with Sus scrofa [1], the GHmax turned out to be 60 ng/mL. The molecule further displayed an ED50 in the test on Sus scrofa [4] of 0.084 µmol/kg. This molecule also came in with an Emax in the test filed under Rattus norvegicus [2] of 115%. This molecule registered an EC50 in the test listed under Rattus norvegicus [3] of 0.6 nM.
In turn, `CN(C(=O)/C=C/CC(C)(C)N)[C@@H](Cc1ccc2ccccc2c1)C(=O)N(C)[C@@H](Cc1ccccc1)C(=O)NCCCCCN=C(N)N` showed a GHmax in the test on Sus scrofa [1] of 49 ng/mL. Further, the Emax in the test listed under Rattus norvegicus [2] stood at 140%. Also, a half-maximal effect in the test listed under Rattus norvegicus [3] (EC50) was put at 17 nM.
In the test with Sus scrofa [1], `CN(C)CCCN(C)C(=O)[C@H](Cc1ccccc1)N(C)C(=O)[C@H](Cc1ccc(-c2ccccc2)cc1)N(C)C(=O)/C=C/CC(C)(C)N` gave a GHmax of 50 ng/mL. The same molecule displayed a maximal response (Emax) in the test listed under Rattus norvegicus [2] of 95%. In the test listed under Rattus norvegicus [3], this molecule gave an EC50 of 4 nM.
On the same counts, the results for `CN(C)C(=O)CCCN(C)C(=O)[C@H](Cc1ccccc1)N(C)C(=O)[C@H](Cc1ccc2ccccc2c1)N(C)C(=O)/C=C/CC(C)(C)N` are 21 ng/mL, 105% and 21 nM.
In the same order, the values of `CN(C)C(=O)[C@H](CCCCN)NC(=O)[C@H](Cc1ccccc1)N(C)C(=O)[C@H](Cc1ccc(-c2ccccc2)cc1)N(C)C(=O)/C=C/CC(C)(C)N` are 116 ng/mL, 110% and 0.15 nM.
Take `CN(C(=O)/C=C/CC(C)(C)N)[C@@H](Cc1ccc2ccccc2c1)C(=O)N(C)[C@@H](Cc1ccccc1)C(=O)N[C@@H](CCCCN)C(N)=O`: in the test on Sus scrofa [1], the GHmax stood at 76 ng/mL. The Emax in the test filed under Rattus norvegicus [2] is 105%. The response in the test listed under Rattus norvegicus [3] was half-maximal at 1.8 nM (EC50).
Molecule `CNC(=O)CCCN(C)C(=O)[C@H](Cc1ccccc1)N(C)C(=O)[C@H](Cc1ccc2ccccc2c1)N(C)C(=O)/C=C/CC(C)(C)N` registered a GHmax in the test on Sus scrofa [1] of 32 ng/mL. Further, in the test listed under Rattus norvegicus [2], the Emax is 100%. This molecule returned an EC50 in the test listed under Rattus norvegicus [3] of 30 nM.
On the same counts, the results for `CN(C(=O)/C=C/CC(C)(C)N)[C@@H](Cc1ccc(-c2ccccc2)cc1)C(=O)N(C)[C@@H](Cc1ccccc1)C(=O)NCCCN` are 25 ng/mL, 130% and 6 nM.
The molecule `CN(C(=O)/C=C/CC(C)(C)N)[C@@H](Cc1ccc(-c2ccccc2)cc1)C(=O)N(C)[C@@H](Cc1ccccc1)C(=O)NCCCCCCN` displayed a GHmax with Sus scrofa [1] of 80 ng/mL. This molecule had an Emax in the test filed under Rattus norvegicus [2] of 130%. In the test listed under Rattus norvegicus [3], this molecule showed an EC50 of 1 nM.
In the test on Sus scrofa [1], `CN(C(=O)/C=C/CC(C)(C)N)[C@@H](Cc1ccc(-c2ccccc2)cc1)C(=O)N(C)[C@@H](Cc1ccccc1)C(=O)NCCN` gave a GHmax of 62 ng/mL. Besides, in the test listed under Rattus norvegicus [2], the Emax stood at 90%. Besides, the EC50 in the test listed under Rattus norvegicus [3] was 5 nM.
The molecule `CN(C)CCCN(C)C(=O)[C@H](Cc1ccccc1)N(C)C(=O)[C@H](Cc1ccc2ccccc2c1)N(C)C(=O)/C=C/CC(C)(C)N` returned a GHmax in the test with Sus scrofa [1] of 45 ng/mL. Besides, the maximal response (Emax) in the test filed under Rattus norvegicus [2] is 105%. Besides, in the test filed under Rattus norvegicus [3], the response was half-maximal at 2 nM (EC50).
In the test with Sus scrofa [1], `CN(C)C(=O)[C@H](CCCCN)NC(=O)[C@H](Cc1ccccc1)N(C)C(=O)[C@H](Cc1ccc2ccccc2c1)N(C)C(=O)/C=C/CC(C)(C)N` yielded a GHmax of 105 ng/mL. For the same molecule, the Emax in the test filed under Rattus norvegicus [2] amounted to 130%. Moreover, in the test listed under Rattus norvegicus [3], the EC50 was found to be 0.3 nM.

The term Emax denotes the size of the effect at its maximum, as opposed to the concentration needed. For orientation: EC50 means the midpoint of the concentration-response curve. The low end stands for greater potency, the high end for weaker potency. What is called ED50 is the midpoint of the dose-response relation.
